Experimental data from PMC11542830, “3-nitropyridine analogues as novel microtubule-targeting agents” (PLOS ONE, 2024).
Where two headings read alike, the source gives them in different places.

Key:
tubulin = test: Fluorescence-based tubulin polymerization assay; format: biochemical; conditions: purified tubulin, fluorescent reporter, vs DMSO control
Experimental: Tubulin polymerization in vitro was analyzed using the fluorescence-based tubulin polymerization assay (Cytoskeleton, Inc.), according to the manufacturer’s guidelines. Fluorescence was read on a SaFire II microplate reader (Tecan).

primary cortical neurons = test: Neurite outgrowth assay; format: cell-based, Sprague-Dawley rat; conditions: Primary cortical neuron, rat primary cortical neurons, 72 hours
Experimental: Neurite outgrowth assay was performed by Fluofarma (Pessac, France). Primary cortical neurons were harvested from E19 Sprague-Dawley (Janvier Labs) rat embryos, dissociated and plated at 10,000 per well in a tissue-culture treated 96 well plate, in neuronal medium (SM2 matrix independent growth medium, Stem Cell Technologies). Neurons were followed by phase contrast imaging with 1 image acquired every 4 hours, using an Incucyte Zoom (Essen BioScience) with a 20x objective. Four fields per well were acquired. After 24 hours, cells were treated with test compounds and neurite outgrowth was followed for 72 hours post-treatment. All measures were performed in triplicate in one experiment.
Neurite outgrowth kinetics were analyzed from each phase contrast image using the Neurotrack module of the Incucyte Zoom platform. Neurite length and branch points were obtained for each time point. The area under the curve (AUC) was calculated in each experimental condition (GraphPad Prism 6, GraphPad Software).

[1] = read-out: IC50 for branch point formation
[2] = read-out: IC50 for neurite length

| Compound | effect on tubulin polymerization in vitro (tubulin) | IC50 (primary cortical neurons; [1]) [nM] | IC50 (primary cortical neurons; [2]) [nM] |
| --- | --- | --- | --- |
| CC[C@]1(O)C[C@@H]2CN(CCc3c([nH]c4ccccc34)[C@@](C(=O)OC)(c3cc4c(cc3OC)N(C)[C@H]3[C@@](O)(C(=O)OC)[C@H](OC(C)=O)[C@]5(CC)C=CCN6CC[C@]43[C@@H]65)C2)C1 [vinblastine, reference compound] | marked decrease in final polymer formation | 0.7 | 0.9 |
| CC[C@]1(O)C[C@H]2CN(CCc3c([nH]c4ccccc34)[C@@](C(=O)OC)(c3cc4c(cc3OC)N(C=O)[C@H]3[C@@](O)(C(=O)OC)[C@H](OC(C)=O)[C@]5(CC)C=CCN6CC[C@]43[C@@H]65)C2)C1 [vincristine, reference compound] | – | 0.2 | 0.2 |
